Assays:
[1] = target: LecB PAO1 (Pseudomonas aeruginosa, UniProt Q9HYN5); assay type: binding; details: target LecB PAO1
Method: LecB (LecB PAO1 according to Hauck et al. and LecB PA14 according to Sommer et al.): A serial dilution of the test compounds was prepared in TBS/Ca, with 20% DMSO as cosolvent. […] Fluorescence was measured and analysed as for LecA. Bottom and top plateaus were fixed according to the control compound in each assay (1-fucose) and the data was re-analysed with these values fixed. A minimum of three independent measurements on three plates was performed for each inhibitor.

[2] = target: LecB PA14 (Pseudomonas aeruginosa, UniProt A0A0H2ZE85); assay type: binding; details: target LecB PA14
Method: LecB (LecB PAO1 according to Hauck et al. and LecB PA14 according to Sommer et al.): A serial dilution of the test compounds was prepared in TBS/Ca, with 20% DMSO as cosolvent. A concentrated solution of LecB PAO1 or PA14 was diluted in TBS/Ca together with the fluorescent reporter ligand (N-(fluorescein-5-yl)-N′-(α-l-fucopyranosyl ethylen)-thiocarbamide) to yield concentrations of 300 nM and 20 nM, respectively. 10 μL of this mix was added to 10 μL serial dilutions of the test compounds in a black 384-well microtiter plates (Greiner Bio-One, Germany, cat. no. 781900) in triplicates. After centrifugation (2680 ref, 1 min, room temperature), the reactions were incubated for 4-8 h at room temperature in a humidity chamber. Fluorescence was measured and analysed as for LecA. Bottom and top plateaus were fixed according to the control compound in each assay (1-fucose) and the data was re-analysed with these values fixed. A minimum of three independent measurements on three plates was performed for each inhibitor.

[3] = test system: A549 cells; test: Cytotoxicity assay (MTT); assay type: cell-based, human; details: 24 h
Text: Then supernatant was transferred to a 96-well-plate. […] The experiment was repeated at least three times. The error bars indicate the standard deviation.

[4] = assay type: in vitro ADME
Method: Each compound dissolved in DMSO was added to mouse plasma (pH 7.4, 37° C.) or to human plasma (pH 7.4, 37° C.) to yield a final concentration of 1 μM. In addition, procaine and procainamide (dissolved in DMSO) were added to mouse plasma or to human plasma (pH 7.4, 37° C.) to yield a final concentration of 1 μM. Procaine served as positive control as it is unstable in mouse plasma. Procainamide served as negative control as it is stable in mouse plasma. The samples were incubated for 0 min, 15 min, 30 min, 60 min, 90 min, 120 min and 240 min at 37° C. At each time point, 10 μl of the respective sample was extracted with 90 l acetonitrile and 1 μl of caffeine as internal standard for 5 min at 2000 rpm on a MixMate® vortex mixer (Eppendorf). Acetonitrile and caffeine were dispensed using a Mantis Formulatrix®. The samples were centrifuged for 20 min at 2270 ref at 4° C. and the supernatants were transferred to 96-well Greiner V-bottom plates. Samples were analysed using HPLC-MS/MS analysis as described in the respective section. Peak areas of each compound and of the internal standard were analysed using the MultiQuant 3.0 software (AB Sciex). […]
Cell samples as well as plasma stability, plasma protein binding and metabolic stability samples were analysed using an Agilent 1290 Infinity II coupled to an AB Sciex 6500plus mass spec-trometer. […]

[5] = target: T1, LecA (Pseudomonas aeruginosa, UniProt Q05097); test: Competitive binding assay based on fluorescence polarization with LecA; details: target LecA; read-out: IC50 ± s.d.
T1 construct: made in house
Method: LecA (according to Joachim et al.): A serial dilution of the test compounds was prepared in TBS/Ca (8.0 g/L NaCl, 2.4 g/L Tris, 0.19 g/L KCl, 0.15 g/L CaCl2·2 H2O), with 30% DMSO as co-solvent. […] The measured intensities were reduced by the values of only LecA in TBS/Ca and fluorescence polarization was calculated. The data was analysed with the MARS Data Analysis Software (BMG Labtech GmbH, Germany) and fitted according to the four-parameter variable slope model. Bottom and top plateaus were fixed according to the control compounds in each assay ((p-nitrophenyl)-p-D-galactoside) and the data was re-analysed with these values fixed. A minimum of three independent measurements on three plates was performed for each inhibitor.
Averages and standard deviations were calculated from at least three independent experiments.

[6] = calculated as Ki from IC50, read-out: Ki ± s.d.

LecB PAO1, sequence (Q9HYN5 entry or part of it): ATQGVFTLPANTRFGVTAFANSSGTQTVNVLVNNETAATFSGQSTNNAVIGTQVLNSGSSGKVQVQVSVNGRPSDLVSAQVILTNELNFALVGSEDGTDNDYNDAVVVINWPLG
LecB PA14, sequence (A0A0H2ZE85 entry or part of it): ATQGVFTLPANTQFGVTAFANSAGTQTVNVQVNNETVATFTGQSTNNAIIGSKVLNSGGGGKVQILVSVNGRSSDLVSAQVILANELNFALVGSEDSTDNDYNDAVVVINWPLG
T1 sequence (Q05097 whole entry): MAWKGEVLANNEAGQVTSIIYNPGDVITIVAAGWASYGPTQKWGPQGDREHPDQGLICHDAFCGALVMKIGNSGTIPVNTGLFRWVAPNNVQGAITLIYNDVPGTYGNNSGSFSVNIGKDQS

| SMILES | IC50 [1] | IC50 ± s.d. [1] | Ki [1, 6] | IC50 [2] | Ki [2, 6] | IC50 [3] | plasma stability, t1/2 human [4] | plasma stability, t1/2 mouse [4] | IC50 [5] |
| --- | --- | --- | --- | --- | --- | --- | --- | --- | --- |
| CC(C)CC(NC(=O)CNC(=O)C(C)NC(=O)c1ccc(S(=O)(=O)NCC2OC(C)C(O)C(O)C2O)cc1)C(=O)NC(C)C(=O)NC1CCN(c2cc3c(cc2F)c(=O)c(C(=O)O)cn3C2CC2)C1 (stereo not drawn) [Compound 37] | 3590 ± 1920 nM | one-digit micromolar range | 1430 ± 900 nM | 750 ± 160 nM | 270 ± 60 nM | > 50000 nM | 2.25 h | 1.23 h | – |
| CC(C)C[C@H](NC(=O)CNC(=O)[C@H](C)NC(=O)c1ccc(S[C@@H]2O[C@H](CO)[C@H](O)[C@H](O)[C@H]2O)cc1)C(=O)N[C@@H](C)C(=O)N[C@H]1CCN(c2cc3c(cc2F)c(=O)c(C(=O)O)cn3C2CC2)C1 [Compound 36] | – | – | – | – | – | – | – | – | ~30000 nM |
